From patent publication US10125134B2 (Mirati Therapeutics, Inc., priority 2016, dated 2018)
Read-outs that look alike come from different tables or passages of the source.

How the values were obtained:
[1] = tested on: NCI-H358 cells (express KRas G12C), Phospho-ERK; assay: Cellular inhibition of KRas G12C: Phospho-ERK in NCI-H358 cells; type: cell-based; settings: pERK(Thr202/Tyr204) normalized with GAPDH, NCI-H358 cells, 3 hours, read-out: IC50
Outline: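 IC50 derived by 4-parameter fit of GAPDH-normalized pERK(Thr202/Tyr204) signal, as percent of DMSO control. Signal came from in-cell immunodetection with infrared secondaries after 3 h compound exposure of KRas G12C NCI-H358 cells at 0.5% DMSO.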

[2] = target: KRas G12C (Homo sapiens, UniProt P01116, C118S/C51S/C80L/G12C); assay: KRas G12C Modification Assay (LCMS detection of covalent adduct); type: binding; settings: normalized percent of control; tested at 5 μM concentration for 3 hours
Outline: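 Cys-light KRas G12C mutant protein incubated with compound in K-Ras assay buffer, reactions quenched at set time points with 25 mM acetic acid and analysed by intact-protein LC/MS on a C-3 column. Deconvoluted mass heights expressed as percent of control (POC) relative to compound-free protein.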

SMILES	IC50 ([1]; Homo sapiens, NCI-H358, 3 h) [µM]	POC [2]	IC50 ([1]; Homo sapiens) [µM]	IC50 [1] [µM]
CN1CCC[C@H]1COc1nc2c(c(N3CCN(C(=O)/C=C/CN4CCOCC4)[C@@H](CC#N)C3)n1)CCN(c1cccc3cccc(Cl)c13)C2 [Example 367, 2-[(2S)-4-[7-(8-chloro-1-naphthyl)-2-[[(2S)-1-methylpyrrolidin-2-yl]methoxy]-6,8-dihydro-5H-pyrido[3,4-d]pyrimidin-4-yl]-1-[(E)-4-morpholinobut-2-enoyl]piperazin-2-yl]acetonitrile]	0.0001 to 1	C (“C”>50% POC)	–	–
C=CC(=O)N1CCN(c2nc(OC[C@@H]3C[C@@H](F)CN3C)nc3c2CCN(c2cncc(F)c2C(F)(F)F)C3)C[C@@H]1CC#N [Example 384, 2-((S)-1-acryloyl-4-(2-(((2S,4R)-4-fluoro-1-methylpyrrolidin-2-yl)methoxy)-7-(5-fluoro-4-(trifluoromethyl)pyridin-3-yl)-5,6,7,8-tetrahydropyrido[3,4-d]pyrimidin-4-yl)piperazin-2-yl)acetonitrile]	–	C (“C”>50% POC)	0.0001 to 1	–
C=CC(=O)N1CCN(c2nc(OC[C@@H]3CCCN3C)nc3c2CCN(c2cccc(F)c2OC)C3)CC1CC#N (stereo partly drawn) [Example 308, 2-[4-[7-(3-fluoro-2-methoxy-phenyl)-2-[[(2S)-1-methylpyrrolidin-2-yl]methoxy]-6,8-dihydro-5H-pyrido[3,4-d]pyrimidin-4-yl]-1-prop-2-enoyl-piperazin-2-yl]acetonitrile]	0.0001 to 1	C (“C”>50% POC)	–	–
C=CC(=O)N1CCN(c2nc(OC[C@@H]3CCCN3C)nc3c2CCN(c2ccccc2Cl)C3)CC1CC#N (stereo partly drawn) [Example 229, 2-(1-acryloyl-4-(7-(2-chlorophenyl)-2-(((S)-1-methylpyrrolidin-2-yl)methoxy)-5,6,7,8-tetrahydropyrido[3,4-d]pyrimidin-4-yl)piperazin-2-yl)acetonitrile]	0.0001 to 1	C (“C”>50% POC)	–	–
C=CC(=O)N1CCN(c2nc(OC[C@@H]3CCCN3CC)nc3c2CCN(c2cccc4ccccc24)C3)C[C@@H]1CC#N [Example 399, 2-((S)-1-acryloyl-4-(2-(((S)-1-ethylpyrrolidin-2-yl)methoxy)-7-(naphthalen-1-yl)-5,6,7,8-tetrahydropyrido[3,4-d]pyrimidin-4-yl)piperazin-2-yl)acetonitrile]	0.0001 to 1	C (“C”>50% POC)	–	–
C=CC(=O)N1CCN(c2nc(O[C@@H](C)[C@@H]3CCCN3C)nc3c2CCN(c2cc(O)cc4ccccc24)C3)CC1 [Example 130, 1-(4-(7-(3-hydroxynaphthalen-1-yl)-2-((S)-1-((S)-1-methylpyrrolidin-2-yl)ethoxy)-5,6,7,8-tetrahydropyrido[3,4-d]pyrimidin-4-yl)piperazin-1-yl)prop-2-en-1-one]	0.0001 to 1	C (“C”>50% POC)	–	–
C=CC(=O)N1CCN(c2nc(OC[C@@H]3CCCN3C)nc3c2CCN(c2cncc(Cl)c2C(F)(F)F)C3)C[C@@H]1CC#N [Example 385, 2-((S)-1-acryloyl-4-(7-(5-chloro-4-(trifluoromethyl)pyridin-3-yl)-2-(((S)-1-methylpyrrolidin-2-yl)methoxy)-5,6,7,8-tetrahydropyrido[3,4-d]pyrimidin-4-yl)piperazin-2-yl)acetonitrile]	0.0001 to 1	C (“C”>50% POC)	–	–
C=CC(=O)N1CCN(c2nc(OCCCCN(C)C)nc3c2CCN(c2cc(O)cc4ccccc24)C3)CC1 [Example 40, 1-(4-(2-(4-(dimethylamino)butoxy)-7-(3-hydroxynaphthalen-1-yl)-5,6,7,8-tetrahydropyrido[3,4-d]pyrimidin-4-yl)piperazin-1-yl)prop-2-en-1-one]	0.0001 to 1	C (“C”>50% POC)	–	–
C=CC(=O)N1CCN(c2nc(OC[C@@H]3CCCN3C)nc3c2CCN(c2cccc4ccc(OC)cc24)C3)CC1CC#N (stereo partly drawn) [Example 255, 2-[4-[7-(7-methoxy-1-naphthyl)-2-[[(2S)-1-methylpyrrolidin-2-yl]methoxy]-6,8-dihydro-5H-pyrido[3,4-d]pyrimidin-4-yl]-1-prop-2-enoyl-piperazin-2-yl]acetonitrile]	> 1	A (“A”≤25% POC)	–	–
C=CC(=O)N1CC2(C1)CN(c1nc(OC(C)CN(C)C)nc3c1CCN(c1cc(O)cc4ccccc14)C3)C2 (stereo not drawn) [Example 18, 1-(6-(2-((1-(dimethylamino)propan-2-yl)oxy)-7-(3-hydroxynaphthalen-1-yl)-5,6,7,8-tetrahydropyrido[3,4-d]pyrimidin-4-yl)-2,6-diazaspiro[3.3]heptan-2-yl)prop-2-en-1-one]	–	C (“C”>50% POC)	> 1	–
C=CC(=O)N1CCN(c2nc(OCCN(C)C)nc3c2CCN(c2ccccc2C(F)(F)F)C3)CC1CC#N (stereo not drawn) [Example 279, 2-(1-acryloyl-4-(2-(2-(dimethylamino)ethoxy)-7-(2-(trifluoromethyl)phenyl)-5,6,7,8-tetrahydropyrido[3,4-d]pyrimidin-4-yl)piperazin-2-yl)acetonitrile]	0.0001 to 1	C (“C”>50% POC)	–	–
C=CC(=O)N1CCN(c2nc(OCCO)nc3c2CCN(c2cc(O)cc4ccccc24)C3)CC1 [Example 142, 1-[4-[2-(2-hydroxyethoxy)-7-(3-hydroxy-1-naphthyl)-6,8-dihydro-5H-pyrido[3,4-d]pyrimidin-4-yl]piperazin-1-yl]prop-2-en-1-one]	> 1	C (“C”>50% POC)	–	–
C=CC(=O)N1CCN(c2nc(OC[C@@H]3CCCN(C)C3)nc3c2CCN(c2cc(O)cc4ccccc24)C3)CC1 [Example 192, (R)-1-(4-(7-(3-hydroxynaphthalen-1-yl)-2-((1-methylpiperidin-3-yl)methoxy)-5,6,7,8-tetrahydropyrido[3,4-d]pyrimidin-4-yl)piperazin-1-yl)prop-2-en-1-one]	0.0001 to 1	C (“C”>50% POC)	–	–
C=CC(=O)N1CCN(c2nc(OC[C@@H]3CCCN3C)nc3c2CCN(c2cncc4ccccc24)C3)CC1CC#N (stereo partly drawn) [Example 291, 2-[4-[7-(4-isoquinolyl)-2-[[(2S)-1-methylpyrrolidin-2-yl]methoxy]-6,8-dihydro-5H-pyrido[3,4-d]pyrimidin-4-yl]-1-prop-2-enoyl-piperazin-2-yl]acetonitrile]	–	C (“C”>50% POC)	–	0.0001 to 1
C=CC(=O)N1CCN(c2nc(OC[C@@H]3CCCN3C)nc3c2CCN(c2c(Cl)ccc4[nH]ncc24)C3)CC1 [Example 250, 1-[4-[7-(5-chloro-1H-indazol-4-yl)-2-[[(2S)-1-methylpyrrolidin-2-yl]methoxy]-6,8-dihydro-5H-pyrido[3,4-d]pyrimidin-4-yl]piperazin-1-yl]prop-2-en-1-one]	> 1	C (“C”>50% POC)	–	–
CC#CC(=O)N1CCN(c2nc(OC[C@@H]3CCCN3C)nc3c2CCN(c2cccc(C)c2C)C3)C[C@@H]1CC#N [Example 389, 2-((S)-1-(but-2-ynoyl)-4-(7-(2,3-dimethylphenyl)-2-(((S)-1-methylpyrrolidin-2-yl)methoxy)-5,6,7,8-tetrahydropyrido[3,4-d]pyrimidin-4-yl)piperazin-2-yl)acetonitrile]	> 1	C (“C”>50% POC)	–	–
C=CC(=O)N1CCN(c2nc(O[C@H](C)CN(C)C)nc3c2CCN(c2cc(O)cc4ccccc24)C3)[C@@H](C)C1 [Example 115, 1-((S)-4-(2-(((R)-1-(dimethylamino)propan-2-yl)oxy)-7-(3-hydroxynaphthalen-1-yl)-5,6,7,8-tetrahydropyrido[3,4-d]pyrimidin-4-yl)-3-methylpiperazin-1-yl)prop-2-en-1-one]	–	C (“C”>50% POC)	0.0001 to 1	–
C=CC(=O)N1CCN(c2nc(OC[C@@H]3COCCN3C)nc3c2CCN(c2cccc4ccccc24)C3)CC1CC#N (stereo partly drawn) [Example 272, 2-(1-acryloyl-4-(2-(((S)-4-methylmorpholin-3-yl)methoxy)-7-(naphthalen-1-yl)-5,6,7,8-tetrahydropyrido[3,4-d]pyrimidin-4-yl)piperazin-2-yl)acetonitrile]	0.0001 to 1	C (“C”>50% POC)	–	–
C=CC(=O)N1CCN(c2nc(O[C@H](C)CN(C)CC)nc3c2CCN(c2cc(O)cc4ccccc24)C3)CC1 [Example 131, 1-[4-[2-[(1R)-2-[ethyl(methyl)amino]-1-methyl-ethoxy]-7-(3-hydroxy-1-naphthyl)-6,8-dihydro-5H-pyrido[3,4-d]pyrimidin-4-yl]piperazin-1-yl]prop-2-en-1-one]	–	C (“C”>50% POC)	0.0001 to 1	–
C=CC(=O)N1CCN(c2nc(OC[C@@H]3CCCN3C)nc3c2CCN(c2cc(O)cc4ccccc24)C3)C(CO)C1 (stereo partly drawn) [Example 169, 1-[3-(hydroxymethyl)-4-[7-(3-hydroxy-1-naphthyl)-2-[[(2S)-1-methylpyrrolidin-2-yl]methoxy]-6,8-dihydro-5H-pyrido[3,4-d]pyrimidin-4-yl]piperazin-1-yl]prop-2-en-1-one]	0.0001 to 1	C (“C”>50% POC)	–	–
C=CC(=O)N1CCN(c2nc(OC[C@H]3CCCN3C)nc3c2CCN(c2ccccc2C(F)(F)F)C3)CC1CC#N (stereo partly drawn) [Example 299, 2-[4-[2-[[(2R)-1-methylpyrrolidin-2-yl]methoxy]-7-[2-(trifluoromethyl)phenyl]-6,8-dihydro-5H-pyrido[3,4-d]pyrimidin-4-yl]-1-prop-2-enoyl-piperazin-2-yl]acetonitrile]	–	C (“C”>50% POC)	–	0.0001 to 1
